For assay [1], the target named is T1, hM3 muscarinic receptor subtype (Homo sapiens, UniProt P20309).
T1 construct: expressed in transfected cells; membranes prepared
In words: Radioligand binding assay, hM3 relative to hM2. As to conditions: ratio of Ki values from radioligand displacement. On the procedure:
(§1) CHO (Chinese hamster ovary) cell lines stably expressing cloned human hM1, hM2, hM3 and hM4 muscarinic receptor subtypes, respectively, were grown to near confluency in medium consisting of HAM's F-12 supplemented with 10% FBS (Fetal Bovine Serum) and 250 μg/mL Geneticin. The cells were grown in a 5% CO2, 37° C. incubator and lifted with dPBS+2 mM EDTA. Cells were collected by 5 minute centrifugation at 650×g, and cell pellets were either stored frozen at −80° C. or membranes were prepared immediately. For membrane preparation, cell pellets were resuspended in lysis buffer and homogenized with a Polytron PT-2100 tissue disrupter (Kinematica AG; 20 seconds×2 bursts). Crude membranes were centrifuged at 40,000×g for 15 minutes at 4° C. […] Protein concentration of the membrane suspension was determined by the method of Lowry, O. et al., (1951) […]: 193, 265. […]
(§2) Radioligand binding assays were performed in 96-well microtiter plates in a total assay volume of 100 μL. […] Filter plates were rinsed three times with wash buffer (10 mM HEPES) to remove unbound radioactivity. […] The plates were then counted in a PerkinElmer Topcount liquid scintillation counter (PerkinElmer Inc., Wellesley, Mass.). Binding data were analyzed by nonlinear regression analysis with the GraphPad Prism Software package (GraphPad Software, Inc., San Diego, Calif.) using the one-site competition model. […]
(Displacement assays read how much labelled ligand stays bound in the presence of the test substance.)

For assay [2], the target named is T2, hM2 muscarinic receptor subtype (Homo sapiens, UniProt P08172).
T2 construct: expressed in transfected cells; membranes prepared
T2 sequence (P08172 1-466): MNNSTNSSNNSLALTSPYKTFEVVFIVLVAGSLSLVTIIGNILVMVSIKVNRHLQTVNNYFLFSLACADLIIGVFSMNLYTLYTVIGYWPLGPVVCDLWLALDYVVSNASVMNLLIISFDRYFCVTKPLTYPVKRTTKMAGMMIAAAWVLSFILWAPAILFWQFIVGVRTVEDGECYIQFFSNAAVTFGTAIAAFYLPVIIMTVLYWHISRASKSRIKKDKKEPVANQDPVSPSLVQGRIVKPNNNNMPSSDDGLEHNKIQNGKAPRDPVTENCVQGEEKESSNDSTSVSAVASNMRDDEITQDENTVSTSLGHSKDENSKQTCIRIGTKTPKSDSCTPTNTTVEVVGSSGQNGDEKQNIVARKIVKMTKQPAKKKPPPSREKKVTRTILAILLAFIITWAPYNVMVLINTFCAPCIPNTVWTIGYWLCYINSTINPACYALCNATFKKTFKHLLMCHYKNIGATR
The experiment in a line: Radioligand binding assay ([3H]NMS displacement), hM2. As to conditions: [3H]NMS at 1 nM; membranes of CHO cells expressing hM2. On the procedure: as §1, §2

T1 sequence (P20309 whole entry): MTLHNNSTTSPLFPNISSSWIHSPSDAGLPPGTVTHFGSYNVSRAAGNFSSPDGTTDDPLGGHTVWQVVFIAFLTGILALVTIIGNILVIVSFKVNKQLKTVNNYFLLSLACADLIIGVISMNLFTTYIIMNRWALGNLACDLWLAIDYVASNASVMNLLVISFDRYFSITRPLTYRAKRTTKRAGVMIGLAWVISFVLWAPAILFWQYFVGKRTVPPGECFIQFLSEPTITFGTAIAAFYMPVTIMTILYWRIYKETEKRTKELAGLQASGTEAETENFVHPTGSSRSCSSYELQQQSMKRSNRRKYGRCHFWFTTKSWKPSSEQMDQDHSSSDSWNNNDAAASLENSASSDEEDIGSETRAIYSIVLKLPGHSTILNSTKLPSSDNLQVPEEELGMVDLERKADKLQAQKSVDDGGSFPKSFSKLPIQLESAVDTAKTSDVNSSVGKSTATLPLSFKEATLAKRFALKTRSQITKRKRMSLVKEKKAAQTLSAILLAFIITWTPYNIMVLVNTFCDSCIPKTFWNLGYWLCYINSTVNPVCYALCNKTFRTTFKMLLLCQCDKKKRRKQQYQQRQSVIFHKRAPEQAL

For the compound `COc1ccncc1CN1CCC(N(CCCCCCCN2CC[C@@H](C(C(N)=O)(c3ccccc3)c3ccccc3)C2)C(C)C)CC1` [Example 1], in assay [1], the hM3/hM2 ratio entry was “greater than 40”. The Ki (commonly a dissociation constant, usually derived from enzyme kinetics or from competition with a known ligand) in assay [2] was under 1 nM.

(Values after US7285564B2, “Substituted 4-amino-1-(pyridylmethyl)piperidine and related compounds” (Theravance, Inc., priority 2002, dated 2007).)
